Assays:
[1] = tested on: Cynomolgus monkey endometrial epithelium, uterus stroma and breast; experiment: TUNEL apoptosis in cynomolgus monkey tissue; type: in vivo, Cynomolgus monkeys (Macaca fascicularis); settings: week 36, percent apoptotic cells
Procedure: Apoptosis was assessed in tissue from the same animals on slides by the terminal deoxynucleotidyl transferase mediated dUTP-biotin nick end labeling (TUNEL) technique.

[2] = Serum corticosterone in rats; settings: CDB-4124 10 or 20 mg/kg, RU 486 10 mg/kg, progesterone 10 mg/kg
[3] = tested on: Cynomolgus monkey endometrial epithelia, uterus stroma and breast; experiment: BrdU incorporation, tissue proliferation in cynomolgus monkeys; type: in vivo, Cynomolgus monkeys (Macaca fascicularis); settings: week 36, % cells positive for incorporation of BrdU, three animals per group
Procedure: At week 36, three animals from each group of Example 6 were injected within 24 hours of sacrifice with the thymidine analog bromodeoxyuridine (BrdU), a marker of proliferating cells and their progeny, to assess tissue proliferation. Full thickness uterine sections were stained and examined microscopically for evidence of proliferation in terms of the % cells positive for incorporation of BrdU: […]

[4] = Serum cortisol in rats; type: in vivo, rat
Procedure: These higher levels were in the range of 3-4 ug/dl (30-40 ng/ml).

[5] = tested on: human endometrium; experiment: Six month endometriosis study: ultrasound measurements of endometrial thickness; type: in vivo; settings: for Endometrium (mm), 1st dose: 1st dose visit; for Endometrium (mm), screening: screening (baseline)
From the text: Women in the study were closely monitored for changes in the structure of the endometrium. […] Comparisons were made to both baseline and visit one ultrasound measurements of endometrial thickness. […]

[6] = target: T1, glucocorticoid receptor (rbGR) (Oryctolagus cuniculus, UniProt P59667); experiment: Glucocorticoid receptor binding / anti-glucocorticoid receptor activity; design: species or system rabbit
T1 construct: cytosol containing PR or GR were prepared in TEGMD buffer; from tissue; host or cells: thymus of estradiol-primed immature rabbits (cytosol)
T1 sequence (P59667 1-772): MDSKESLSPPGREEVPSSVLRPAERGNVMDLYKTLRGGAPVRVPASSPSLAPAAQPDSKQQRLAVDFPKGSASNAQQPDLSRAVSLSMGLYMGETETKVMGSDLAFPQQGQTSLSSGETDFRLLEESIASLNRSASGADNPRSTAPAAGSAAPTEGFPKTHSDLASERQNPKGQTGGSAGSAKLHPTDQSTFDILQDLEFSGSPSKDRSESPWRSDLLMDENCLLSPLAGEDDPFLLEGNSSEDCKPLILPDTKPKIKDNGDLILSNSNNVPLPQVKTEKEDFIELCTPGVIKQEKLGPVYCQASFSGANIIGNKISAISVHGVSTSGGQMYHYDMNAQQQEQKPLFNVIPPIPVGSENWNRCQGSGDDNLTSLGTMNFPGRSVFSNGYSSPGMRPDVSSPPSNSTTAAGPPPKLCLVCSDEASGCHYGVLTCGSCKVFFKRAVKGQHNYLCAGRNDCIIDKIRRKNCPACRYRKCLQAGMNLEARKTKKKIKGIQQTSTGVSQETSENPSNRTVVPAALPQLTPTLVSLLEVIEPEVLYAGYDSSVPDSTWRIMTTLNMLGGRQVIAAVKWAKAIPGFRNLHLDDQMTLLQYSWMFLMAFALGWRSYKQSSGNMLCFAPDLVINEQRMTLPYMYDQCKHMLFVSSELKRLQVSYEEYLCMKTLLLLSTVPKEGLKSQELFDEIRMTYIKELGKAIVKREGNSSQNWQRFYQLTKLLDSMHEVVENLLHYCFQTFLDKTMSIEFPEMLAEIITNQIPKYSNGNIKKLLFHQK
Procedure: Certain antiprogestins were tested in receptor-binding assays for their ability to bind rabbit progesterone receptor (rbPR) and glucocorticoid receptor (rbGR). […] For PR binding, the cytosol was incubated with 6 nM 1,2-[^3H]progesterone (50.0 Ci/mmole) and competitors were added at concentrations from 2 to 100 nM. For binding to GR, the cytosol was incubated with 6 nM 6,7-[^3H]-dexamethasone (40 Ci/mmol) and test compounds were added at concentrations from 20 to 100 nM. After overnight incubation at 4 C, bound and unbound [^3H] steroids were separated by addition of dextran-coated charcoal and centrifugation at 2100×g for 15 min at 4 C. Supernatants containing the [3H]-steroid receptor complexes were decanted into vials containing 4 ml Optifluor (Packard Instrument Co.), vortexed, equilibrated in a liquid scintillation counter for 30 minutes and then counted for 2 minutes. […] The standards for the PR and GR assays were unlabeled progesterone and dexamethasone, respectively.

[7] = tested on: rabbit progesterone receptor (rbPR) and glucocorticoid receptor (rbGR); experiment: Receptor-binding assays, ratio of relative binding affinities rbPR/rbGR; settings: ratio of relative binding affinities (RBA = EC50 of standard/EC50 of test compound x 100) for rbPR and rbGR
Procedure: Certain antiprogestins were tested in receptor-binding assays for their ability to bind rabbit progesterone receptor (rbPR) and glucocorticoid receptor (rbGR). Briefly, cytosol containing PR or GR were prepared in TEGMD buffer (10 mM Tris, pH 7.2, 1.5 mM EDTA, 0.2 mM sodium molybdate, 10% glycerol, 1 mM DTT) from uterus or thymus, respectively, of estradiol-primed immature rabbits. For PR binding, the cytosol was incubated with 6 nM 1,2-[^3H]progesterone (50.0 Ci/mmole) and competitors were added at concentrations from 2 to 100 nM. For binding to GR, the cytosol was incubated with 6 nM 6,7-[^3H]-dexamethasone (40 Ci/mmol) and test compounds were added at concentrations from 20 to 100 nM. After overnight incubation at 4 C, bound and unbound [^3H] steroids were separated by addition of dextran-coated charcoal and centrifugation at 2100×g for 15 min at 4 C. Supernatants containing the [3H]-steroid receptor complexes were decanted into vials containing 4 ml Optifluor (Packard Instrument Co.), vortexed, equilibrated in a liquid scintillation counter for 30 minutes and then counted for 2 minutes. The EC50 (Effective Concentration) for each standard curve and each of the compound curves was determined by entering the counting data into a four parameter sigmoidal computer program (RiaSmart® Immunoassay Data Reduction Program, Packard Instrument Co., Meriden, Conn.). Relative binding affinity (RBA) for each compound was calculated using the following equation: EC50 of standard/EC50 of test compound×100. The standards for the PR and GR assays were unlabeled progesterone and dexamethasone, respectively. The results of these experiments are summarized in Table 1, as a ratio of the relative binding affinities of each compound for the rbPR and rbGR receptors (rbPR/rbGR).

## COCC(=O)[C@@]1(OC(C)=O)CC[C@H]2[C@@H]3CCC4=CC(=O)CCC4=C3[C@@H](c3ccc(N(C)C)cc3)C[C@@]21C [CDB-4124, 21-methoxy-17α-acetoxy-11β-(4 N,N-dimethylaminophenyl)-19-norpregna-4,9-diene-3,20-dione]
[1]
  Breast Apo %: 2.6 ± 0.9%
  Uterus epithelium Apo %: 0.5 ± 0.2%
  Uterus stroma Apo %: 0.5 ± 0.1%
[2]
  differences in serum corticosterone between groups: No differences
[3]
  Breast Brdu-%: 1.9 ± 0.7%
  Uterus epithelium Brdu-%: 2.1 ± 2.2%
  Uterus stroma Brdu-%: 1.1 ± 0.25%
[4]; 10 mg/kg, 21 days of chronic dosing
  levels of serum cortisol versus control group: significantly higher
[4]; FIG. 2
  effect of increasing doses on serum cortisol: dose-dependent
[5]; 12.5 mg dose (n=4)
  women exhibiting thickened endometrium after three months: two
[5]; 12.5 mg
  Endometrium (mm), 1st dose: 8.0 mm
  Endometrium (mm), 3 months: 20.33 mm
  Endometrium (mm), screening: 7.5 mm
[5]; 25 mg dose (n=4)
  women exhibiting thickened endometrium after three months: One
[5]; 25 mg
  Endometrium (mm), 1st dose: 11.7 mm
  Endometrium (mm), 3 months: 19.6 mm
  Endometrium (mm), screening: 8.4 mm
[5]; 50 mg dose (n=3)
  women exhibiting thickened endometrium after three months: none
[5]; 50 mg
  Endometrium (mm), 1st dose: 10.8 mm
  Endometrium (mm), 3 months: 7.7 mm
  Endometrium (mm), screening: 8.0 mm
[6]
  anti-glucocorticoid receptor activity / glucocorticoid receptor binding: minimal anti-glucocorticoid receptor activity
[7]
  rbPR/rbGR: 1.58

Source: patent publication US20090118253A1, “COMPOSITIONS AND METHODS FOR TREATING DYSFUNCTIONAL UTERINE BLEEDING” (REPROS THERAPEUTICS INC., priority 2007, published 2009)
